Legend:
T cells = assay: Inhibition of T cell proliferation (antigen PPD induced, [3H]thymidine incorporation); format: cell-based; conditions: PPD (10 μg/ml), 144 hours culture, mean of triplicate cultures
Experimental: The chemical compounds used according to the invention prevent immunological proliferation by selective inhibition of the Ca^2+-activated K-channels in T- and B-lymphocytes. This effect may be verified using various proliferation assays. In this experiment the proliferative assay described by Ødum et al [Ødum N, Kanner S B, Ledbetter J A, & Svejgaard A; J. Immunol. 1993 150 (12) 5289-5298] was used.
Assays were performed in culture medium (RPMI 1640; available from Gibco, Grand Island, N.Y.) supplemented with 10% pooled human serum, 2 mM L-glutamine, 100 μg/ml penicillin, and 100 μg/ml streptomycin (available from Novo Nordisk, Copenhagen, Denmark) in 96-well round bottom tissue culture plates (available from Nunc, Roskilde, Denmark) with a final volume of 200 μl.
T cells were pre-incubated for three hours with the test compounds before addition of antigen (PPD, purified protein derivative, 10 μg/ml). T cells were cultured at 5×10^4 cells/well for 144 hours. Twelve hours before harvest, [^3H]thymidine ([…]) was added. The cells were harvested onto glass fibre filters, and the [^3H]thymidine incorporation was measured in a scintillation counter. The results were expressed as mean counts per minute (cpm) from triplicate cultures.

| melting point [°C] | Structure (SMILES) | T Cell Proliferation (T cells; test compound 2.5 μM) [cpm × 10^−3] | T Cell Proliferation (T cells; test compound 10 μM) [cpm × 10^−3] | T Cell Proliferation (T cells; test compound 25 μM) [cpm × 10^−3] |
| --- | --- | --- | --- | --- |
| 178 to 180 | Cc1ccc(C)n1-c1c(-c2ccccc2)cc(Cl)cc1-c1ccccc1 | – | – | – |
| – | CC(C)c1cccc(C(C)C)c1-c1cccnc1 [Compound 1B, 3-(2,6-diisopropylphenyl)-pyridine] | 19.5 | 19 | 14 |

— patent US20020065315A1, “Ion channel modulating agents” (priority 1999, published 2002)
